For one assay, the system named is NCI-H82. The assay can be described thus: Small-cell-lung cancer cell proliferation inhibition assay (PrestoBlue), NCI-H82. The assay is classed as cell-based. Particulars: Homo sapiens, cMYC amplified SCLC cells, 72 hours. As for the experimental part: (§1) Small cell lung cancer cells NCI-H82 (ATCC HTB-175, cMYC amplified), NCI-H446 (ATCC® HTB-171, cMYC amplified), and NCI-H69 (ATCC® HTB-119, MYCN amplified) were seeded at the density of 5000-10000 cells per well in 96-well plates. After 24 hours, the cancer cells were treated with each compound at various concentrations (0-10 μM) and then incubated for another 72 hours. IC50 values were computed based on duplicated 8-point titration.

The target of assay [1] is T1, human Aurora A (amino acids 123-401) (Homo sapiens, UniProt O14965).
T1 construct: human Aurora A (amino acids 123-401) was expressed in Sf9 insect cells; GST; made in house; host or cells: Sf9 insect cells
T1 sequence (O14965 123-401): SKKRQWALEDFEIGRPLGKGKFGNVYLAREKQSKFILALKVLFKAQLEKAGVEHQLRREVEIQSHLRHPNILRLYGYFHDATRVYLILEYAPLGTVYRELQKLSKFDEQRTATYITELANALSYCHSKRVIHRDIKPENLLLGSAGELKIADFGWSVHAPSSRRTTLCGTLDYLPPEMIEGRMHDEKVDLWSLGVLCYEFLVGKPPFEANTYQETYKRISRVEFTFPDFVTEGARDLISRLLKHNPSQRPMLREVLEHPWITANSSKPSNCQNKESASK
In words: Kinase-Glo Luminescent Kinase assay, in vitro inhibition of Aurora A kinase activity. Particulars: recombinant GST-tagged Aurora A, 5.0 μM ATP, 37° C., 120 minutes. Format: biochemical. As for the experimental part: Recombinant glutathione S-transferase (GST)-tagged N-terminal truncated human Aurora A (amino acids 123-401) was expressed in Sf9 insect cells and then purified by glutathione affinity chromatography to afford recombinant Aurora A. Recombinant Aurora A (150 ng) was reacted with each test compound (100 nM) in 50 μL of 50 mM Tris-HCl pH 7.4, 10 mM NaCl, 10 mM MgCl2, 0.01% bovine serum albumin, 5.0 μM ATP, 1 mM dithiothreitol, 15 μM tetra(-LRRASLG) peptide at 37° C. for 120 minutes. Then, to the reaction was added 50 μL of Kinase-Glo Plus Reagent. The resulting mixture was incubated at 25° C. for 20 minutes. A 70 μL aliquot of the mixture was transferred to a black microliter plate. Luminescence was measured using a Wallac Vector 1420 multilabel counter (PerkinElmer, USA).
(In general: Kinase-Glo reads ATP consumption through a luciferase reaction.)

The test system of a further assay is NCI-H446. In words: Small-cell-lung cancer cell proliferation inhibition assay (PrestoBlue), NCI-H446. Format: cell-based. Particulars: Homo sapiens, cMYC amplified SCLC cells, 72 hours. The procedure: as §1

A word on the IC50: it is the concentration needed to halve the response being measured. As for `CCN1CCN(c2cc(Nc3ncc(C#N)s3)nc(N[C@H]3CCN(C(=O)c4ccc(Cl)cc4F)C3)n2)CC1` [Compound 1], the half-inhibitory concentration (IC50) in the assay on NCI-H82 was below 1000 nM; in assay [1] it was below 100 nM; in the assay on NCI-H446, below 1000 nM. Consider `CCOC(=O)c1cnc(Nc2cc(N3CCN(C)CC3)nc(N[C@H]3CCN(C(=O)c4ccc(Cl)cc4F)C3)n2)s1` [Compound 2], for which the IC50 was below 1000 nM in the assay on NCI-H82 and below 100 nM in assay [1].

As for `Cc1cc(Nc2cc(N3CC(N(C)C)C3)nc(N[C@H]3CCN(C(=O)c4ccc(Cl)cc4F)C3)n2)n[nH]1` [Compound 8], the figures for the concentration for half-maximal inhibition (IC50) (in the assay on NCI-H82; in assay [1]; in the assay on NCI-H446) were below 1000 nM, below 100 nM and below 1000 nM, respectively.

`CC(=O)N1CCN(c2cc(Nc3cc(C)[nH]n3)nc(N[C@H]3CCN(C(=O)c4ccc(Cl)cc4F)C3)n2)CC1` [Compound 12]: the results for the 50% inhibitory concentration (IC50) (in the assay on NCI-H82; in assay [1]; in the assay on NCI-H446) were below 1000 nM, below 100 nM and below 1000 nM, respectively.

`COCCN(C)c1cc(Nc2cc(C)[nH]n2)nc(N[C@H]2CCN(C(=O)c3ccc(Cl)cc3F)C2)n1` [Compound 17]: the IC50 in the assay on NCI-H82 was below 1000 nM; in assay [1], below 100 nM; in the assay with NCI-H446, below 1000 nM. Consider `Cc1cc(Nc2cc(N3CC[C@@H](N(C)C)C3)nc(N[C@H]3CCN(C(=O)c4ccc(Cl)cc4F)C3)n2)n[nH]1` [Compound 18], for which the IC50 in the assay on NCI-H82 and with NCI-H446 was below 1000 nM each time. Regarding `COC1CN(c2cc(Nc3cc(C)[nH]n3)nc(N[C@H]3CCN(C(=O)c4ccc(Cl)cc4F)C3)n2)C1` [Compound 19], the IC50 was below 1000 nM in the assay on NCI-H82, below 100 nM in assay [1] and below 1000 nM in the assay with NCI-H446.

As to `Cc1cc(Nc2cc(N3CC[C@@H](N(C)C)C3)nc(N[C@H]3CCN(C(=O)c4cccc(Cl)c4F)C3)n2)n[nH]1` [Compound 20], in assay [1], the concentration for half-maximal inhibition (IC50) is below 100 nM. With `Cc1cc(Nc2cc(N3CC[C@H](N(C)C)C3)nc(N[C@H]3CCN(C(=O)c4cccc(Cl)c4F)C3)n2)n[nH]1` [Compound 22], the IC50 was below 1000 nM with NCI-H82, below 100 nM in assay [1] and below 1000 nM in the assay on NCI-H446. Consider `COC[C@@H]1CCCN1c1cc(Nc2cc(C)[nH]n2)nc(N[C@H]2CCN(C(=O)c3cccc(Cl)c3F)C2)n1` [Compound 23], for which, in assay [1], the IC50 is below 100 nM. As to `COC[C@H]1CCCN1c1cc(Nc2cc(C)[nH]n2)nc(N[C@H]2CCN(C(=O)c3cccc(Cl)c3F)C2)n1` [Compound 24], the IC50 in assay [1] is below 100 nM. For `Cc1cc(Nc2cc(N3CC(N(C)C)C3)nc(N[C@H]3CCN(C(=O)c4cccc(Cl)c4F)C3)n2)n[nH]1` [Compound 25], the values for the 50% inhibitory concentration (IC50) (in the assay on NCI-H82; in assay [1]; in the assay on NCI-H446) were below 1000 nM, below 100 nM and below 1000 nM, respectively. In the case of `Cc1cc(Nc2cc(N3CCNCC3)nc(N[C@H]3CCN(C(=O)c4cccc(Cl)c4F)C3)n2)n[nH]1` [Compound 26], the concentration for half-maximal inhibition (IC50) in the assay with NCI-H82 was below 1000 nM; in assay [1] it was below 100 nM; in the assay with NCI-H446, below 1000 nM. For the compound `Cc1cc(Nc2cc(N(C)CCN(C)C)nc(N[C@H]3CCN(C(=O)c4cccc(Cl)c4F)C3)n2)n[nH]1` [Compound 27], the figures for the half-maximal inhibitory concentration (IC50) (in the assay on NCI-H82; in assay [1]; with NCI-H446) were below 1000 nM, below 100 nM and below 1000 nM, respectively. On to `COC1CCN(c2cc(Nc3cc(C)[nH]n3)nc(N[C@H]3CCN(C(=O)c4cccc(Cl)c4F)C3)n2)CC1` [Compound 28], for which the half-maximal inhibitory concentration (IC50) in assay [1] was below 100 nM.

`CCN1CCN(c2cc(Nc3cc(C)[nH]n3)nc(N[C@H]3CCN(C(=O)c4ccc(Cl)cc4)C3)n2)CC1` [Compound 29]: in assay [1], the half-inhibitory concentration (IC50) is below 100 nM. Still for that read-out and setting: to `Cc1cc(Nc2cc(N3CCN(C)CC3)nc(N[C@H]3CCN(Cc4cccc(Cl)c4F)C3)n2)n[nH]1` [Compound 30] belongs below 100 nM. Consider `CCN1CCN(c2cc(Nc3cc(C)[nH]n3)nc(N[C@H]3CCN(Cc4cccc(Cl)c4F)C3)n2)CC1` [Compound 31], for which the half-inhibitory concentration (IC50) with NCI-H82 is below 1000 nM; in assay [1], below 100 nM; in the assay with NCI-H446, below 1000 nM. As for `CCN1CCN(c2cc(Nc3cc(C)[nH]n3)nc(N[C@H]3CCN(C(=O)c4ccc(Cl)cc4Cl)C3)n2)CC1` [Compound 32], the results for the IC50 (in the assay on NCI-H82; in assay [1]; with NCI-H446) were below 1000 nM, below 100 nM and below 1000 nM, respectively. As for `CCN1CCN(c2cc(Nc3cc(C)[nH]n3)nc(N[C@H]3CCN(C(=O)c4ccc(Cl)c(C)c4)C3)n2)CC1` [Compound 33], the IC50 in assay [1] was below 100 nM. For the compound `CCN1CCN(c2cc(Nc3cc(C)[nH]n3)nc(N[C@H]3CCN(C(=O)c4ccc(Cl)cc4C)C3)n2)CC1` [Compound 34], the concentration for half-maximal inhibition (IC50) in assay [1] is below 100 nM. For `Cc1cc(Nc2cc(N3CCN(C)CC3)nc(N[C@H]3CCN(C(=O)c4cccc(Cl)c4F)C3)n2)n[nH]1` [Compound 35], the IC50 in the assay on NCI-H82 was below 1000 nM; in assay [1], below 100 nM; with NCI-H446 it was below 1000 nM. `Cc1cc(Nc2cc(N3CCN(C)CC3)nc(N[C@H]3CCN(C(=O)c4ccc(Cl)cc4F)C3)n2)n[nH]1` [Compound 36]: the IC50 with NCI-H82 was below 1000 nM; in assay [1], below 100 nM; in the assay on NCI-H446 it was below 1000 nM. `CCN1CCN(c2cc(Nc3cc(C)[nH]n3)nc(NC3CCN(C(=O)c4cccc(Cl)c4F)C3)n2)CC1` (centres unmarked) [Compound 58]: the half-maximal inhibitory concentration (IC50) in assay [1] was below 100 nM.

`CCN1CCN(c2cc(Nc3cc(C)nn3C(C)=O)nc(N[C@H]3CCN(C(=O)c4ccc(Cl)cc4F)C3)n2)CC1` [Compound 70]: the 50% inhibitory concentration (IC50) with NCI-H82 and in the assay with NCI-H446 was below 1000 nM each time.

With `COCCN(C)c1cc(Nc2cc(C)[nH]n2)nc(NC2CCN(C(=O)c3cccc(Cl)c3F)CC2)n1` [Compound 98], the IC50 in the assay with NCI-H82 and in the assay on NCI-H446 was below 1000 nM throughout. Turning to `CCN1CCN(c2cc(Nc3cc(C)[nH]n3)nc(N(CC)C3CCN(C(=O)c4cccc(Cl)c4F)CC3)n2)CC1` [Compound 109], the 50% inhibitory concentration (IC50) in assay [1] was below 100 nM. For `Cc1cc(Nc2ccnc(NC3CCN(Cc4cccc(Cl)c4F)CC3)n2)n[nH]1` [Compound 110], the concentration for half-maximal inhibition (IC50) in assay [1] is below 100 nM.

Regarding `Cc1cc(Nc2cc(C)[nH]n2)nc(N(C)C2CCN(Cc3cccc(Cl)c3F)CC2)n1` [Compound 111], the IC50 in assay [1] is below 100 nM.

With `Cc1cc(Nc2ccnc(NC3CCN(C(=O)c4cccc(F)c4F)CC3)n2)n[nH]1` [Compound 113], the concentration for half-maximal inhibition (IC50) in assay [1] is below 100 nM.

For the compound `Cc1cc(Nc2cc(C)[nH]n2)nc(NC2CCN(C(=O)c3cccc(F)c3F)CC2)n1` [Compound 114], in assay [1], the 50% inhibitory concentration (IC50) is below 100 nM. Same read-out and setting: to `Cc1cc(Nc2nccs2)nc(N(C)C2CCN(Cc3cccc(Cl)c3F)CC2)n1` [Compound 115] belongs below 100 nM; to `Cc1cc(Nc2nccs2)nc(NC2CCN(Cc3cccc(Cl)c3F)CC2)n1` [Compound 116], below 100 nM; to `Cc1cc(Nc2ccnc(NC3CCN(C(=O)c4cccc(Cl)c4Cl)CC3)n2)n[nH]1` [Compound 118], below 100 nM.

On to `Cc1cc(Nc2cc(C)[nH]n2)nc(NC2CCN(Cc3cccc(Cl)c3F)CC2)n1` [Compound 119], for which the half-inhibitory concentration (IC50) in assay [1] is below 100 nM. Consider `Cc1cc(Nc2cc(C)[nH]n2)nc(NC2CCN(C(=O)c3cccc(Cl)c3F)CC2)n1` [Compound 120], for which the concentration for half-maximal inhibition (IC50) in assay [1] was below 100 nM. On the same count and under the same terms, the same measure for `Cc1cc(Nc2cc(C)[nH]n2)nc(NC2CCN(C(=O)c3cccc(Cl)c3Cl)CC2)n1` [Compound 121]: below 100 nM. Turning to `CCN1CCN(c2cc(Nc3cc(C)nn3C(=O)C(C)C)nc(NC3CCN(C(=O)c4cccc(Cl)c4F)CC3)n2)CC1` [Compound 124], the IC50 in the assay on NCI-H82 and with NCI-H446 was below 1000 nM each time. On to `CCCC(=O)n1nc(C)cc1Nc1cc(N2CCN(CC)CC2)nc(NC2CCN(C(=O)c3cccc(Cl)c3F)CC2)n1` [Compound 125], for which the IC50 with NCI-H82 and with NCI-H446 was below 1000 nM each time.

The record behind these values is patent publication US12679827B2, “Pyrimidine compounds and their pharmaceutical uses” (National Health Research Institutes, priority 2020, dated 2026).
